Experimental data taken from US20130149395A1, “Pharmaceutical Product, Method of Production and Method of Application of the Pharmaceutical Product” (priority 2010, published 2013).

Assay: Stability of 2,2-dichloropropionic acid during prolonged storage (NMR impurity identification)
Type: physicochemical
Conditions: transforms into pyroracemic acid or alpha chloroacrylic acid
From the text: The impurity identification of 2,2-dichloropropionic acid, taken as an example, has been conducted using the method of NMR spectroscopy on the ^1H and ^13C nuclei, one of the most informative methods, which allows to determine the composition of each impurity even if the numerous related compounds are found in the sample.

CC(Cl)(Cl)C(=O)O [2,2-dichloropropionic acid]
Stability to daylight and prolonged storage: daylight-sensitive
